Data published in paper PMC7156724, “Potent BRD4 inhibitor suppresses cancer cell-macrophage interaction” (Nature Communications, 2020).
“And” between values parts separate entries of the source, which are not always exact repeats. Equal values may be shown once. Read-outs that look alike come from different tables or passages of the source.

Assays:
[1] = In vivo pharmacokinetics study, rat; set-up: species or system SD rat
Procedure: (§1) 4–6 weeks old female BALB/c nude mice were used for most experiments, with the exception of 6–8 weeks old female C57BL/6 mice were used for B16F10 experiments, and 6–8 weeks old male BALB/c nude mice and SD rats were used for pharmacokinetic experiments. All animals were purchased from Shanghai SIPPR-Bk Lab Animal Co., Ltd. All animals were housed under a regimen of 12 h light/12 h dark cycles and specific pathogen-free conditions. 5×10^6 NCI-H526, ES-2, MDA-MB231, A2780, A375, B16F10, and TMD-8 cells (0.1 ml) were injected subcutaneously into female nude mice. The melanoma patient-derived xenograft model was derived from a human melanoma sample (BRAF, NARS and NF1 wild type, and p53 mutant) removed from a patient in Xiangya Hospital. Surgically removed tumor fragments were implanted subcutaneously into female NSG mice. When the tumors grew to ~1000 mm^3, they were harvested and cryopreserved or immediately re-implanted for expansion or experiments. Mouse body weight and tumor sizes were measured every 3 days. Once the tumors grew to 150–200 mm^3, mice were treated with the compounds as described in the Figures. 1 × 10^6 A2780 cells (1 ml) were injected into the abdominal cavity of nude mice. Ascitic volume and tumor weight were measured by an electronic balance. All the procedures were evaluated and approved by the Institutional Animal Care and Use Committee of Central South University and Yale University.
Supplementary Figure 7. Pharmacokinetic profile of NHWD-870 using mouse and rat models.
(a,b) Plasma concentrations of NHWD-870 in healthy (a) mouse and (b) rat after intravenous (IV, 1.75 mg/kg for mouse and 1 mg/kg for rat) and oral (PO, 5 mg/kg) administration. Values shown on the right panels are mean ± SEM from 3 different animals. (c,d) Mean concentrations of NHWD-870 in the lungs (c) and tumors (d) of H526 xenograft model at the indicated hours after oral administration of 3 mg/kg NHWD-870 and BMS-98615821 on day 21. These mice were administrated the indicated drug daily for 21 days. Data are represented as mean ± SEM of 3 independent experiments. Source data are provided as a Source Data file. […]
9. In vivo pharmacokinetics study. Mouse and SD rat models were used to evaluate pharmacokinetic property of NHWD-870. NHWD-870 was administrated […]
Concentration of drugs in plasma, lung and tumor tissues were measured for the indicated time. […]

[2] = tested on: ES-2 ovarian cancer; assay: ES-2 ovarian tumor xenograft growth; format: in vivo, mouse; conditions: ES-2, 1mg/kg p.o. QD x 21D
Procedure: as §1
Supplementary Figure 9. […]
PO, oral administration; QD, once daily; BID, twice daily; D, day. (c,d) Tumor growth curves for ES2 ovarian tumor (c), MDA-MB231 breast tumor (d) bearing mice treated with the indicated compounds for 21 days. Compounds were orally administrated once daily. Data are presented as mean ± SEM from 6 different mice. p values were calculated using two-tailed, unpaired t tests.
**, p<0.01; ***, p<0.001. Source data are provided as a Source Data file. […]

[3] = male, SD, plasma, iv, 1 mg/kg, IV 1 mg/kg

**Q.** Which results are given for Cc1nnn(C)c1-c1cnc2c3c4cnn(C)c4ccc3n([C@H](c3ccccc3)C3CCOCC3)c2c1 [NHWD-870]?
**A.** AUCExtra ([1]; IV 1 mg/kg): 2.21±0.73%; AUMCExtra ([1]; IV 1 mg/kg): 11.5±3.025%; Cl ([1]; IV 1 mg/kg, 1 mg/kg): 50 mL/min/kg; T1/2 ([1]; IV 1 mg/kg, 1 mg/kg): 0.9 h; Plasma Conc. ([1]; IV bolus, 5 min, individual animals, LLOQ 1.00 ng/mL): 362 ng/mL and 355 ng/mL; Plasma Conc. ([1]; IV bolus, 0.25 h, individual animals, LLOQ 1.00 ng/mL): 274 ng/mL and 247 ng/mL; Plasma Conc. ([1]; IV bolus, 0.5 h, individual animals, LLOQ 1.00 ng/mL): 208 ng/mL and 167 ng/mL; Plasma Conc. ([1]; IV bolus, 1 h, individual animals, LLOQ 1.00 ng/mL): 98.1 ng/mL and 112 ng/mL; Plasma Conc. ([1]; IV bolus, 2 h, individual animals, LLOQ 1.00 ng/mL): 48.1 ng/mL and 40.3 ng/mL; Plasma Conc. ([1]; IV bolus, 4 h, individual animals, LLOQ 1.00 ng/mL): 8.88 ng/mL and 8.14 ng/mL; Plasma Conc. ([1]; IV bolus, 8 h, individual animals, LLOQ 1.00 ng/mL): BQL; Plasma Conc. ([1]; IV bolus, 24 h, individual animals, LLOQ 1.00 ng/mL): BQL; AUCExtra ([1]; PO 5 mg/kg): 3.97±1.15%; AUMCExtra ([1]; PO 5 mg/kg): 11.8±2.615%; Tlast ([1]; PO 5 mg/kg): 8 h; Plasma Conc. ([1]; PO, 0.25 h, individual animals, LLOQ 1.00 ng/mL): 18.8 ng/mL and 13.3 ng/mL; Plasma Conc. ([1]; PO, 0.5 h, individual animals, LLOQ 1.00 ng/mL): 58.3 ng/mL and 33.9 ng/mL; Plasma Conc. ([1]; PO, 1 h, individual animals, LLOQ 1.00 ng/mL): 117 ng/mL and 106 ng/mL and 54.6 ng/mL; Plasma Conc. ([1]; PO, 2 h, individual animals, LLOQ 1.00 ng/mL): 111 ng/mL and 73.5 ng/mL; Plasma Conc. ([1]; PO, 4 h, individual animals, LLOQ 1.00 ng/mL): 48.1 ng/mL and 45.9 ng/mL; Plasma Conc. ([1]; PO, 6 h, individual animals, LLOQ 1.00 ng/mL): 20.2 ng/mL and 15.9 ng/mL and 50.5 ng/mL; Plasma Conc. ([1]; PO, 8 h, individual animals, LLOQ 1.00 ng/mL): 6.96 ng/mL and 4.35 ng/mL and 9.56 ng/mL; Plasma Conc. ([1]; PO, 24 h, individual animals, LLOQ 1.00 ng/mL): BQL; AUC(0-inf) ([1]; male, SD, plasma, IV 1 mg/kg): 331 ± 6.45 ng·h/mL; AUC(0-t) ([1]; male, SD, plasma, IV 1 mg/kg): 323 ± 5.55 ng·h/mL; C0 ([1]; male, SD, plasma, IV 1 mg/kg): 441 ± 17.9 ng/mL; MRT inf ([1]; male, SD, plasma, IV 1 mg/kg): 1.08 ± 0.021 h; MRT last ([1]; male, SD, plasma, IV 1 mg/kg): 0.98 ± 0.045 h; Vd ([1]; male, SD, plasma, IV 1 mg/kg, read-out: Vdss): 3.27 ± 0.0925 L/kg; AUC(0-inf) ([1]; male, SD, plasma, PO 5 mg/kg): 398 ± 9.15 ng·h/mL; AUC(0-t) ([1]; male, SD, plasma, PO 5 mg/kg): 382 ± 12.6 ng·h/mL; Cmax ([1]; male, SD, plasma, PO 5 mg/kg): 101 ± 11.8 ng/mL; MRT inf ([1]; male, SD, plasma, PO 5 mg/kg): 3.28 ± 0.33 h; MRT last ([1]; male, SD, plasma, PO 5 mg/kg): 3 ± 0.256 h; Tmax ([1]; male, SD, plasma, PO 5 mg/kg): 1.67 ± 0.288 h; bioavailability ([1]; male, SD, plasma, PO 5 mg/kg, calculated using AUCinf with nominal dose): 24%; clearance [1, 3]: 50.4 ± 0.965 mL/min/kg; half-life [1, 3]: 0.92 ± 0.0805 h; concentration at 5 min ([1]; male, SD, plasma, iv, 1 mg/kg, IV bolus, 5 min, individual animals, LLOQ 1.00 ng/mL, read-out: Plasma Conc.): 392 ng/mL; concentration at 0.25 h ([1]; male, SD, plasma, iv, 1 mg/kg, IV bolus, 0.25 h, individual animals, LLOQ 1.00 ng/mL, read-out: Plasma Conc.): 259 ng/mL; concentration at 0.5 h ([1]; male, SD, plasma, iv, 1 mg/kg, IV bolus, 0.5 h, individual animals, LLOQ 1.00 ng/mL, read-out: Plasma Conc.): 168 ng/mL; concentration at 1 h ([1]; male, SD, plasma, iv, 1 mg/kg, IV bolus, 1 h, individual animals, LLOQ 1.00 ng/mL, read-out: Plasma Conc.): 96.1 ng/mL; concentration at 2 h ([1]; male, SD, plasma, iv, 1 mg/kg, IV bolus, 2 h, individual animals, LLOQ 1.00 ng/mL, read-out: Plasma Conc.): 39 ng/mL; concentration at 4 h ([1]; male, SD, plasma, iv, 1 mg/kg, IV bolus, 4 h, individual animals, LLOQ 1.00 ng/mL, read-out: Plasma Conc.): 8.15 ng/mL; concentration at 8 h ([1]; male, SD, plasma, iv, 1 mg/kg, IV bolus, 8 h, individual animals, LLOQ 1.00 ng/mL, read-out: Plasma Conc.): 1.09 ng/mL; half-life ([1]; male, SD, plasma, po, 5 mg/kg, PO 5 mg/kg): 1.48 ± 0.155 h; concentration at 0.25 h ([1]; male, SD, plasma, po, 5 mg/kg, PO, 0.25 h, individual animals, LLOQ 1.00 ng/mL, read-out: Plasma Conc.): 18.2 ng/mL; concentration at 0.5 h ([1]; male, SD, plasma, po, 5 mg/kg, PO, 0.5 h, individual animals, LLOQ 1.00 ng/mL, read-out: Plasma Conc.): 56.8 ng/mL; concentration at 2 h ([1]; male, SD, plasma, po, 5 mg/kg, PO, 2 h, individual animals, LLOQ 1.00 ng/mL, read-out: Plasma Conc.): 110 ng/mL; concentration at 4 h ([1]; male, SD, plasma, po, 5 mg/kg, PO, 4 h, individual animals, LLOQ 1.00 ng/mL, read-out: Plasma Conc.): 45.5 ng/mL; % Tumor growth, AVG ([2]; day 0, group AVG): 0%; Tumor volume, AVG ([2]; day 0, group AVG): 182.834 mm^3; % Tumor growth ([2]; day 0, individual animals): 0%
